Patent publication US7700621B2, “6-alkenyl-, 6-alkinyl- and 6-epoxy-epothilone derivatives, process for their production, and their use in pharmaceutical preparations” (Bayer Schering Pharma Aktiengesellschaft, priority 1999, dated 2010)

Tested on: multi-drug-resistant NCl/ADR-carcinoma cell line
Experiment: Growth inhibition of multi-drug-resistant NCl/ADR carcinoma cell line, crystal-violet assay
Type: cell-based, human
Details: ratio of IC50 NCl/ADR to IC50 MCF-7
Source text: In Vitro Activity of Epothilone Derivatives on Human Tumor Cell Lines
a) IC50 values [nM] for the growth inhibition of human MCF-7-breast and multi-drug-resistant NCl/ADR-carcinoma cell lines of epothilone derivatives with 13Z-unsaturated in the crystal-violet assay in comparison to Taxol.
b) IC50 values [nM] for the growth inhibition of human MCF-7-breast- and multi-drug-resistant NCl/ADR carcinoma cell lines of epothilone derivative with 13,14-α-epoxide, which was formed from the 13-Z-configured double bond in the crystal-violet assay in comparison to Taxol.
c) IC50 values [nM] for the growth inhibition of human MCF-7-breast- and multi-drug-resistant NCl/ADR-carcinoma cell lines of epothilone derivatives with 13,14-epoxide, which was formed from the 13-E-configured double bond, in a crystal-violet assay in comparison to Taxol.

| SMILES | Selectivity = IC50 (NCl/ADR) : IC50 (MCF-7) |
| --- | --- |
| C#CC[C@H]1C(=O)C(C)(C)[C@@H](O)CC(=O)O[C@H](/C(F)=C/c2csc(C)n2)C[C@@H]2O[C@@]2(C)CCC[C@H](C)[C@@H]1O [Example 26A or B] | 3.3 |
| C#CC[C@H]1C(=O)C(C)(C)[C@@H](O)CC(=O)O[C@H](/C(F)=C/c2csc(C)n2)C[C@@H]2O[C@]2(C)CCC[C@H](C)[C@@H]1O [Example 25, (1S,3S(Z),7S,10R,11S,12S,16R)-7,11-Dihydroxy-3-(1-fluoro-2-(2-methyl-4-thiazolyl)ethenyl)-10-(prop-2-in-1-yl)-8,8,12,16-tetramethyl-4,17-dioxabicyclo[14.1.0]heptadecane-5,9-dione] | 4.8 |
| C=CCC[C@H]1C(=O)C(C)(C)[C@@H](O)CC(=O)O[C@H](/C(C)=C/c2ccccn2)C/C=C(/C)CCC[C@H](C)[C@@H]1O [Example 2, (4S,7R,8S,9S,13Z,16S(E))-4,8-Dihydroxy-16-(1-methyl-2-(2-pyridyl)ethenyl)-1-oxa-5,5,9,13-tetramethyl-7-(but-3-en-1-yl)-cyclohexadec-13-ene-2,6-dione] | 2.8 |
| C=CC[C@H]1C(=O)C(C)(C)[C@@H](O)CC(=O)O[C@H](/C(C)=C/c2csc(C)n2)C[C@H]2O[C@]2(C)CCC[C@H](C)[C@@H]1O [Example 12A or B] | 1.5 |
| C#CCC[C@H]1C(=O)C(C)(C)[C@@H](O)CC(=O)O[C@H](/C(C)=C/c2ccccn2)C/C=C(/C)CCC[C@H](C)[C@@H]1O [Example 1, (4S,7R,8S,9S,13Z,16S(E))-4,8-Dihydroxy-16-(1-methyl-2-(2-pyridyl)ethenyl)-1-oxa-5,9,13-tetramethyl-7-(but-3-in-1-yl)-cyclohexadec-13-ene-2,6-dione] | 2.5 |
| C#CCC[C@H]1C(=O)C(C)(C)[C@@H](O)CC(=O)O[C@H](/C(C)=C/c2ccccn2)C[C@@H]2O[C@]2(C)CCC[C@H](C)[C@@H]1O [Example 4A, (1S,3S(E),7S,10R,11S,12S,16R)-7,11-Dihydroxy-10-(but-3-in-1-yl)-3-(1-methyl-2-(2-pyridyl)ethenyl)-8,8,12,16-tetramethyl-4,17-dioxabicyclo[14.1.0]heptadecane-5,9-dione] | 7.0 |
| C=CC[C@H]1C(=O)C(C)(C)[C@@H](O)CC(=O)O[C@H](/C(C)=C/c2csc(C)n2)C[C@@H]2O[C@]2(C)CCC[C@H](C)[C@@H]1O [Example 10A, (1S,3S(E),7S,10R,11S,12S,16R)-7,11-Dihydroxy-10-(prop-2-en-1-yl)-3-(1-methyl-2-(2-methylthiazol-4-yl)ethenyl)-8,8,12,16-tetramethyl-4,17-dioxabicyclo[14.1.0]heptadecane-5,9-dione] | 3.0 |
| C=CCC[C@H]1C(=O)C(C)(C)[C@@H](O)CC(=O)O[C@H](/C(C)=C/c2ccccn2)C[C@@H]2O[C@]2(C)CCC[C@H](C)[C@@H]1O [Example 5A, (1S,3S(E),7S,10R,11S,12S,16R)-7,11-Dihydroxy-10-(but-3-en-1-yl)-3-(1-methyl-2-(2-pyridyl)ethenyl)-8,8,12,16-tetramethyl-4,17-dioxabicyclo[14.1.0]heptadecane-5,9-dione] | 1.2 |
| C#CC[C@H]1C(=O)C(C)(C)[C@@H](O)CC(=O)O[C@H](/C(F)=C/c2csc(C)n2)C/C=C(/C)CCC[C@H](C)[C@@H]1O [Example 23, (4S,7R,8S,9S,13Z,16S(Z))-4,8-Dihydroxy-16-(1-fluoro-2-(2-methylthiazol-4-yl)ethenyl)-7-(prop-2-in-1-yl)-1-oxa-5,5,9,13-tetramethyl-cyclohexadec-13-ene-2,6-dione] | 5.6 |
| C=CC[C@H]1C(=O)C(C)(C)[C@@H](O)CC(=O)O[C@H](/C(C)=C/c2csc(C)n2)C/C=C(/C)CCC[C@H](C)[C@@H]1O [Example 9, (4S,7R,8S,9S,13Z,16S(E))-4,8-Dihydroxy-16-(1-methyl-2-(2-methylthiazol-4-yl)ethenyl)-1-oxa-5,5,9,13-tetramethyl-7-(prop-2-en-1-yl)-cyclohexadec-13-ene-2,6-dione] | 2.4 |
| C#CC[C@H]1C(=O)C(C)(C)[C@@H](O)CC(=O)O[C@H](/C(F)=C/c2coc(C)n2)C/C=C(/C)CCC[C@H](C)[C@@H]1O [Example 27, (4S,7R,8S,9S,13Z,16S(Z))-4,8-Dihydroxy-16-(1-fluoro-2-(2-methyloxazol-4-yl)ethenyl)-7-(prop-2-in-1-yl)-1-oxa-5,5,9,13-tetramethyl-cyclohexadec-13-ene-2,6-dione] | 1.6 |

Same assay, conditions: statement in words, compared with Taxol

| SMILES | action on the multi-drug-resistant cell line NCl/ADR |
| --- | --- |
| CC(=O)O[C@H]1C(=O)[C@@]2(C)[C@H]([C@H](OC(=O)c3ccccc3)[C@]3(O)C[C@H](OC(=O)[C@H](O)[C@@H](NC(=O)c4ccccc4)c4ccccc4)C(C)=C1C3(C)C)[C@]1(OC(C)=O)CO[C@@H]1C[C@@H]2O [Taxol, reference compound] | not exhibited |
